A word on the IC50: it is the midpoint of a concentration-inhibition curve. By clearance is commonly meant the rate of elimination divided by the concentration. Read a high clearance as a high capacity for elimination. By half-life is commonly meant the time in which the quantity being followed falls by half. Low values mean rapid decline, high ones slow decline. As usually defined, the bioavailability is dose-corrected exposure relative to a reference, in per cent. The low end stands for poor availability, the high end for good availability.

The results in this text go back to ChEMBL document CHEMBL5715943, “Design and synthesis of potent and selective azaindole-based Rho kinase (ROCK) inhibitors” (ChemMedChem, 2008).

For one data set, the system named is Saphenous artery. Briefly: Vasorelaxant activity in isolated Chinchilla rabbit saphenous artery vessels assessed as inhibition of phenylephrine-mediated contraction. The note with it: Oryctolagus cuniculus. In kind it is functional, tissue-based.
Data set [1] has as its target Rho-associated protein kinase 2 (Homo sapiens, UniProt O75116). The data set is described as follows: Inhibition of His-tagged human ROCK2 expressed in Sf9 cells pre-incubated for 10 mins before S6 peptide substrate addition in presence of [33P]ATP and measured after 20 mins by scintillation counting.
The test system of data set [2] is Rattus norvegicus. The data set is described as follows: Anti-hypertensive effect in anaesthetized Wistar rat assessed as blood-pressure-lowering effect at 3 mg/kg, iv relative to control. The format is functional.
A short description of data set [3]: in vivo. To be noted: Wistar, rat, iv, 0.5 mg/kg.
Data set [4] is described as follows: in vivo. To be noted: Wistar, rat, iv, 0.5 mg/kg. The source holds these as a separate data set.
The conditions of data set [5]: buffer.
Data set [6] concerns Rattus norvegicus. Briefly: Anti-hypertensive effect in anaesthetized Wistar rat assessed as blood-pressure-lowering effect at 0.3 mg/kg, iv relative to control. In kind it is functional.
The target of data set [7] is Myosin light chain kinase, smooth muscle (Homo sapiens, UniProt Q15746). Briefly: Inhibition of MYLK (unknown origin).
Chain of Myosin light chain kinase, smooth muscle (Q15746 whole entry): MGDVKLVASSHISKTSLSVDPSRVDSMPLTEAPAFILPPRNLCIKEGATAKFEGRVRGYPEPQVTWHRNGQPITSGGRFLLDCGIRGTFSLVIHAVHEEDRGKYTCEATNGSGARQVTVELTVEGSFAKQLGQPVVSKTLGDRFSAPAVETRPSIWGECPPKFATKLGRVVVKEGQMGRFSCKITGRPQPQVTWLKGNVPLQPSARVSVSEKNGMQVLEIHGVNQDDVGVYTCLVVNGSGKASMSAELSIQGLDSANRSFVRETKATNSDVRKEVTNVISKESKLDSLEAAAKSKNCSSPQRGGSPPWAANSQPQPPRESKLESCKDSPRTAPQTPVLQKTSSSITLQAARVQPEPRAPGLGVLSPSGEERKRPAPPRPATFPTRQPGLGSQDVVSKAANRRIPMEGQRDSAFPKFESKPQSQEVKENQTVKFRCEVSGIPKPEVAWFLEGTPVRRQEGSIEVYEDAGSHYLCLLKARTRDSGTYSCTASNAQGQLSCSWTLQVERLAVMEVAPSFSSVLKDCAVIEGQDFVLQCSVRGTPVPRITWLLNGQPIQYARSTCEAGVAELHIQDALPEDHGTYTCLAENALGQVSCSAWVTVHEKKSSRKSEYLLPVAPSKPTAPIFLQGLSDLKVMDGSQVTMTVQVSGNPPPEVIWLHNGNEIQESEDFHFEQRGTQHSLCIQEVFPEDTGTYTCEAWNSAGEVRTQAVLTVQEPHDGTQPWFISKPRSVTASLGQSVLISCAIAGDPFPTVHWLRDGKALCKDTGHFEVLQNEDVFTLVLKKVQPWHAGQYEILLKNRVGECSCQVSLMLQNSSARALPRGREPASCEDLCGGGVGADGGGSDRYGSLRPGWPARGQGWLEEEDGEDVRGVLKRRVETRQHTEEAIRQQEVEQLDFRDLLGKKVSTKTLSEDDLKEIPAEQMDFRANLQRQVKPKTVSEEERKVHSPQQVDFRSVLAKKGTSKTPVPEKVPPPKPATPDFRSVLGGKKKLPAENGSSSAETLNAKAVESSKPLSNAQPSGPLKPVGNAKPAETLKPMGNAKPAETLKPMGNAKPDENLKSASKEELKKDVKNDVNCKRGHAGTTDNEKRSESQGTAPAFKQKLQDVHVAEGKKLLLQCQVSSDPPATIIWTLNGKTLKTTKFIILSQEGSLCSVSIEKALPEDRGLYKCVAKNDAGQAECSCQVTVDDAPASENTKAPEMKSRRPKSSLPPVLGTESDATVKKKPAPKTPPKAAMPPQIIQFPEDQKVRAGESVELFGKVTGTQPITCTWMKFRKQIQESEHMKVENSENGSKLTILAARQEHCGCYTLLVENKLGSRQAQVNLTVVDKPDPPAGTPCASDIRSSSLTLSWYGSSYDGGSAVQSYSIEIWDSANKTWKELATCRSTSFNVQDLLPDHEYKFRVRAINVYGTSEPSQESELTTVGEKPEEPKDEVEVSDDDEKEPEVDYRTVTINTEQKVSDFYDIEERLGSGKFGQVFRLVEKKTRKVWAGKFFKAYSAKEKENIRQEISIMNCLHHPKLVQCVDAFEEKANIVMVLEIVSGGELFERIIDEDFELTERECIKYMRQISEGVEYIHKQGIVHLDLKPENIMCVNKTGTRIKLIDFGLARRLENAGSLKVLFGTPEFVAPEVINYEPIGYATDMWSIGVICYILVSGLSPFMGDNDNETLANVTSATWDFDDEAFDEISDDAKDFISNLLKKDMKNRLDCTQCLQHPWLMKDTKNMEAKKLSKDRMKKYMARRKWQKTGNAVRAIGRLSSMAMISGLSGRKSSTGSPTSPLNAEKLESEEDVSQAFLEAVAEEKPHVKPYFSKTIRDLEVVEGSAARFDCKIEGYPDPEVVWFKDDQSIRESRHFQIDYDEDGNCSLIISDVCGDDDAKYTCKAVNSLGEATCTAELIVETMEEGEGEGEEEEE
In data set [8] the target is T1, Tyrosine-protein kinase receptor UFO (Homo sapiens, UniProt P30530).
T1 sequence (P30530 whole entry): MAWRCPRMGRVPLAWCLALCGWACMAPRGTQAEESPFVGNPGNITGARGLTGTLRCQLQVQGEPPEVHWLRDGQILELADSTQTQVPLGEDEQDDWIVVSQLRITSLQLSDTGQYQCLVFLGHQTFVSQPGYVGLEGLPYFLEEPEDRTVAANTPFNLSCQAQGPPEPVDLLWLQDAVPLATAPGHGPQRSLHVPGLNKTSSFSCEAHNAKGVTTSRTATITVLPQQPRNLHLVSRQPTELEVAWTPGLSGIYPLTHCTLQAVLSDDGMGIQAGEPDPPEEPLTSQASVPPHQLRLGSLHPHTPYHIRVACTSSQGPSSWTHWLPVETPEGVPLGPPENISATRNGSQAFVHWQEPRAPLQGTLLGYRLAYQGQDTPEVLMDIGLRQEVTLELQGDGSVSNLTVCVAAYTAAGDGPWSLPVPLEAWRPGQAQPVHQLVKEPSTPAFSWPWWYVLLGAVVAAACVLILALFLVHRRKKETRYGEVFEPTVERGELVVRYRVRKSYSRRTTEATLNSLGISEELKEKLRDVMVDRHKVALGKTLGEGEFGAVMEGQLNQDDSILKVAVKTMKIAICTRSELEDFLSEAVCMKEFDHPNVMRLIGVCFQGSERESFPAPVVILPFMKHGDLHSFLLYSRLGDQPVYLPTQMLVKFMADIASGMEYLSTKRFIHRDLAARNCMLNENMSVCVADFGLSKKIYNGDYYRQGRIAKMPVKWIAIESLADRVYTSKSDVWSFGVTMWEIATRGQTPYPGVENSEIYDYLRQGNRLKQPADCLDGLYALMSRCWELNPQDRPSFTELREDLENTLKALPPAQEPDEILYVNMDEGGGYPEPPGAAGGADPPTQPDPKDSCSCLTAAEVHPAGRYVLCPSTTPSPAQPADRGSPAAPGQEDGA
Briefly: Inhibition of human AXL.

Data set [9] deals with RAF proto-oncogene serine/threonine-protein kinase (Homo sapiens, UniProt P04049). The data set is described as follows: Inhibition of human c-RAF.
Chain of RAF proto-oncogene serine/threonine-protein kinase (P04049 whole entry): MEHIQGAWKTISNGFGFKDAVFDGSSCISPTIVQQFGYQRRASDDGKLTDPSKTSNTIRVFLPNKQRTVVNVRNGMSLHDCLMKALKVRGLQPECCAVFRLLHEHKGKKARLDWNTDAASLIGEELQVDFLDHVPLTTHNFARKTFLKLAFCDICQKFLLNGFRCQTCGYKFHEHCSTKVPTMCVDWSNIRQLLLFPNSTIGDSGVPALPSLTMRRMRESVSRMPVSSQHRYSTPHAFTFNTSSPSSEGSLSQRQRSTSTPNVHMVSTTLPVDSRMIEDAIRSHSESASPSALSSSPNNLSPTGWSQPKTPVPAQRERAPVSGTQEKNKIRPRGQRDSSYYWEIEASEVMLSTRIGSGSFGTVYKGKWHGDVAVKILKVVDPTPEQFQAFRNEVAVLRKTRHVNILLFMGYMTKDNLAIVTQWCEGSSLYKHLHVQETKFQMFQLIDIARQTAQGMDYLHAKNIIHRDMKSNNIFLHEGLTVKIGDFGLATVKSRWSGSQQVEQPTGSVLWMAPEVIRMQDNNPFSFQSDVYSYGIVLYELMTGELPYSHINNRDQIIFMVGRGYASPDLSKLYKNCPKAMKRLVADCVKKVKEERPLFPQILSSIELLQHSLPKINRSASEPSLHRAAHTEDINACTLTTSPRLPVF
The target of data set [10] is Voltage-gated L-type calcium channel (Homo sapiens, UniProt Q13936+Q13698+Q01668+O60840). The data set is described as follows: Inhibition of L-type calcium channel (unknown origin). The format is protein assay.
Data set [11] in a line: Inhibition of sodium channel (unknown origin). Further details: species or system Homo sapiens; call rule not given here.
In data set [12] the target is Voltage-gated inwardly rectifying potassium channel KCNH2 (Homo sapiens, UniProt Q12809). The data set is described as follows: Inhibition of human ERG channel assessed as reduction in K+ current by whole-cell voltage-clamp assay. In kind it is toxicity.
Chain of Voltage-gated inwardly rectifying potassium channel KCNH2 (Q12809 whole entry): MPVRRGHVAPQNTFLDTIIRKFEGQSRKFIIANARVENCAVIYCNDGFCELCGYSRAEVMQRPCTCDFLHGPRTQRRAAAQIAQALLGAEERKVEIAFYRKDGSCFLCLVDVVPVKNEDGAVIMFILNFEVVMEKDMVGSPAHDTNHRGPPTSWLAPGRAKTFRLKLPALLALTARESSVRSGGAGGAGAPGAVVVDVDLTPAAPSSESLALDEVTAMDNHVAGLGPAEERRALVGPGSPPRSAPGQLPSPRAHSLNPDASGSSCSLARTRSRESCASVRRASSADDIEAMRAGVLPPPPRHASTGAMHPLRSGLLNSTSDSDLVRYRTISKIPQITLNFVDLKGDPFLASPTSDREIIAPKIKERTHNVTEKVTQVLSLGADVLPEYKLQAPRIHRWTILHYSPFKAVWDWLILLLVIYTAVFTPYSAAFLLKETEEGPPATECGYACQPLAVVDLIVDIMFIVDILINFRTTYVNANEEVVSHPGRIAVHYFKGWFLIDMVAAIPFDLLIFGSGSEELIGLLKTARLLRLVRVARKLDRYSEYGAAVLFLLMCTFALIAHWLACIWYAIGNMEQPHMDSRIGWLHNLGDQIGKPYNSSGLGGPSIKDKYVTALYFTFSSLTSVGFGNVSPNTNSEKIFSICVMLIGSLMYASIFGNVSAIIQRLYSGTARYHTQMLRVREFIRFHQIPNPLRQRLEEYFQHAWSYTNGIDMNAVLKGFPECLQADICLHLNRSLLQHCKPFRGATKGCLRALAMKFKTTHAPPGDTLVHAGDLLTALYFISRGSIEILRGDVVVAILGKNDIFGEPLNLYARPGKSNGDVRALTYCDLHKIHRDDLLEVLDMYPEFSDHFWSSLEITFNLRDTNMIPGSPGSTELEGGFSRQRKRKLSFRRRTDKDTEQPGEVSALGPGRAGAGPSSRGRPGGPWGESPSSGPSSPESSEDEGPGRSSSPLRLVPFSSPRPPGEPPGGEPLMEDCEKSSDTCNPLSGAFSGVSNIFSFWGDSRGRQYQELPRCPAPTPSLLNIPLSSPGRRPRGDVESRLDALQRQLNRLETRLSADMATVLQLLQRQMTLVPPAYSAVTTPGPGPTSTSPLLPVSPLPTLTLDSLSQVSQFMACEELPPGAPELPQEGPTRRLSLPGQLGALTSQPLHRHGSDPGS
Data set [13] in a line: in vivo. The note with it: Wistar, rat, po, 1 mg/kg.

Chain of Rho-associated protein kinase 2 (O75116 whole entry): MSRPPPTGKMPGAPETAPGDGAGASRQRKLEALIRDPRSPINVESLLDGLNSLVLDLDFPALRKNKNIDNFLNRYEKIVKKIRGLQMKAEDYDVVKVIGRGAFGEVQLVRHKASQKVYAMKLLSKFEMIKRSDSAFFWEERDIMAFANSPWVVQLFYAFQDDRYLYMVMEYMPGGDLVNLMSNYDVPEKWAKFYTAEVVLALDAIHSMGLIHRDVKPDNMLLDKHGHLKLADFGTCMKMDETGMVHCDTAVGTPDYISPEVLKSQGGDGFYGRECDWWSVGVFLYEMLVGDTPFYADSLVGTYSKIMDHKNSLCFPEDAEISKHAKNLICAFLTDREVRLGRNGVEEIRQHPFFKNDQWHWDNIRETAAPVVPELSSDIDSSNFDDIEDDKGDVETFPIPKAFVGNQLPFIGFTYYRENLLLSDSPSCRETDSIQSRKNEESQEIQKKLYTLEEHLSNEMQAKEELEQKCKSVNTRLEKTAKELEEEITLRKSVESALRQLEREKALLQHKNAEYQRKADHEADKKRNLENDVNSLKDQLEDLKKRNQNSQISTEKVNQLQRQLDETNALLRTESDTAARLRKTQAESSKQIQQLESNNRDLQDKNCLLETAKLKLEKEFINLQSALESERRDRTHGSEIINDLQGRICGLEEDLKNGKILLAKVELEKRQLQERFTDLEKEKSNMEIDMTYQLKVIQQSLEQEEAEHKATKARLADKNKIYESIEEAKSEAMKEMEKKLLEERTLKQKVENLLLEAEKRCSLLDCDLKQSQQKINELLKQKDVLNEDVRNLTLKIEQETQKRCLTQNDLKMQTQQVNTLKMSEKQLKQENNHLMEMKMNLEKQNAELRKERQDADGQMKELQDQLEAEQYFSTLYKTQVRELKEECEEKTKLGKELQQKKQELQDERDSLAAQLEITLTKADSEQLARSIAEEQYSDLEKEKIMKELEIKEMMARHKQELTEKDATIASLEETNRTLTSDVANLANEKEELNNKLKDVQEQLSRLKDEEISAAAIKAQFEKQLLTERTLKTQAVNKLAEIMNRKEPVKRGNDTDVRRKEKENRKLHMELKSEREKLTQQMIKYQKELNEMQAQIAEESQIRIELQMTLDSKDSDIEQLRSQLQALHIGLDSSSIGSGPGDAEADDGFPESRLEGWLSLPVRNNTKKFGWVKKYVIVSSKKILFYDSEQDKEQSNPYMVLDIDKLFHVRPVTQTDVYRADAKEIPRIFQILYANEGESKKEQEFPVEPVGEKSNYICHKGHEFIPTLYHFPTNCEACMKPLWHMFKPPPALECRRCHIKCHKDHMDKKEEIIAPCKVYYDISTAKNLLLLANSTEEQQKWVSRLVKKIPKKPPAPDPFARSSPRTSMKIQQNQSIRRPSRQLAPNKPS

As for `Cc1c[nH]c2nccc(Oc3ccc(Nc4cc(Cl)nc(N)n4)cc3F)c12`, the IC50 in the data set on Saphenous artery came to 0.1 µM.

For the compound `Nc1nc(Nc2ccc(Oc3ccnc4[nH]ncc34)c(F)c2)cc(-c2ccncc2)n1`, the IC50 in data set [1] was over 3 µM.

Regarding `Nc1nc(Nc2ccc(Oc3ccnc4[nH]ccc34)c(F)c2)cc(N2CCNCC2)n1`, the IC50 is 0.006 µM in data set [1] and 0.41 µM in the data set with Saphenous artery.

Regarding `Cc1cc(Nc2ccc(Sc3ccncc3)c(F)c2)nc(N)n1`, the IC50 in [1] came out at 0.09 µM.

With `Nc1nc(Nc2ccc(Oc3cccc4[nH]ncc34)c(F)c2)cc(-c2ccncc2)n1`, the IC50 in [1] turned out to be 0.38 µM.

Regarding `Cc1cc(Nc2ccc(Oc3ccnc4[nH]ccc34)c(F)c2)nc(N)n1`, the IC50 in [1] turned out to be 0.011 µM; with Saphenous artery it was 1.7 µM.

`Cc1c[nH]c2nccc(Oc3ccc(Nc4cc(-c5ccncc5)nc(N)n4)cc3F)c12`: the IC50 in data set [1] turned out to be 0.003 µM; in the data set with Saphenous artery it was 0.089 µM. Moreover, the Activity in the data set on Rattus norvegicus [2] is 70 mmHg.

Take `Nc1nc(Nc2ccc(Oc3ccnc4[nH]ccc34)c(F)c2)cc(C2CCCNC2)n1` (centres undefined): the IC50 in the data set with Saphenous artery came to 0.23 µM.

As for `Cc1c[nH]c2nccc(Oc3c(F)cc(Nc4ccnc(N)n4)cc3F)c12`, the results for the IC50 (in [1]; in the data set with Saphenous artery) were 0.002 µM and 0.056 µM, respectively. Moreover, the clearance in “in vivo [3]” was 26.7 mL/min/kg. In addition, in “in vivo [4]”, the half-life is 54 min.

In the case of `Nc1nc(Cl)cc(Nc2ccc(Oc3ccnc4[nH]ccc34)c(F)c2)n1`, the IC50 in data set [1] worked out at 0.009 µM; with Saphenous artery, 1.1 µM.

As for `Nc1nc(Nc2ccc(Oc3cccc4[nH]ccc34)c(F)c2)cc(-c2ccncc2)n1`, the IC50 in data set [1] is over 3 µM.

For `N#Cc1c[nH]c2nccc(Oc3c(F)cc(Nc4ccnc(N)n4)cc3F)c12`, the IC50 in [1] came to 0.0009 µM; in the data set with Saphenous artery, 0.02 µM. For the same compound, the solubility entry in [5] is reported as “Insoluble”.

As for `Nc1nc(Nc2ccc(Sc3ccncc3)c(F)c2)cc(-c2ccncc2)n1`, the IC50 is 0.011 µM in data set [1] and 0.5 µM in the data set on Saphenous artery.

Consider `Nc1nc(Nc2ccc(Oc3ccnc4[nH]ccc34)c(F)c2)cc(C(F)(F)F)n1`, for which the figures for the IC50 (in data set [1]; in the data set on Saphenous artery) were 0.007 µM and 0.71 µM, respectively.

For the compound `Nc1nc(Nc2ccc(Oc3cccc4cnccc34)c(F)c2)cc(-c2ccncc2)n1`, the IC50 in data set [1] is 0.2 µM.

Regarding `Nc1nc(Nc2ccc(Oc3ccnc4[nH]ccc34)c(F)c2)cc(C2CCNCC2)n1`, the IC50 in data set [1] is 0.002 µM; with Saphenous artery, 0.57 µM.

Take `Cc1c[nH]c2nccc(Oc3c(F)cc(Nc4cc(Cl)nc(N)n4)cc3F)c12` [BAY-549]: the IC50 came to 0.065 µM in the data set on Saphenous artery; 7.4 µM in [7]; 1 µM in data set [8]; 1 µM in [9]; 6.7 µM in data set [10]; 6.8 µM in data set [11]. Also, in the data set with Rattus norvegicus [6], the Activity is on record as 35 mmHg. Besides, the “inhibition (INH)” value in data set [12] is on record as “Not Active”. Moreover, the clearance in “in vivo [3]” was 28.3 mL/min/kg. In “in vivo [4]”, this compound gave a half-life of 72 min. The bioavailability in the data set “in vivo [13]” turned out to be 48%.

Consider `CCc1c[nH]c2nccc(Oc3ccc(Nc4cc(-c5ccncc5)nc(N)n4)cc3F)c12`, for which the IC50 came to 0.008 µM in data set [1] and 1.2 µM with Saphenous artery.

For the compound `Cc1cc(Nc2ccc(Sc3ccncc3)cc2)nc(N)n1`, the IC50 in [1] stood at 0.8 µM.

In the case of `Nc1nc(Nc2ccc(Oc3ccnc4[nH]ccc34)c(F)c2)cc(-c2cccnc2)n1`, the IC50 in [1] stood at 0.01 µM; with Saphenous artery it was 0.37 µM.

Regarding `Nc1nc(Nc2ccc(Oc3ccnc4[nH]ccc34)c(F)c2)cc(N2CCCC2)n1`, the IC50 was determined as 0.016 µM in data set [1] and 0.94 µM in the data set with Saphenous artery.

Consider `Nc1nc(Nc2ccc(Oc3ccnc4[nH]ccc34)c(F)c2)cc(-c2ccccn2)n1`, for which the IC50 is 0.007 µM in [1] and 0.46 µM with Saphenous artery.

With `Nc1nccc(Nc2ccc(Oc3ccnc4[nH]ccc34)c(F)c2)n1`, the values for the IC50 (in [1]; in the data set with Saphenous artery) were 0.017 µM and 1.5 µM, respectively.

Regarding `Cc1n[nH]c2cccc(Oc3ccc(Nc4cc(-c5ccncc5)nc(N)n4)cc3F)c12`, the IC50 in the data set on Saphenous artery stood at 6.8 µM.

`Nc1nc(Nc2ccc(Oc3ccnc4[nH]ccc34)c(F)c2)cc(-c2ccncc2)n1`: the IC50 with Saphenous artery was determined as 0.27 µM. Moreover, the Activity in the data set with Rattus norvegicus [2] was determined as 65 mmHg. In the data set “in vivo [3]”, the clearance is 88.3 mL/min/kg. In addition, the half-life in the data set “in vivo [4]” is 18 min. Moreover, the bioavailability in “in vivo [13]” amounted to 18%.

Take `Nc1nc(Nc2cc(F)c(Oc3ccnc4[nH]cc(Cl)c34)c(F)c2)cc(C(F)(F)F)n1`: the IC50 in data set [1] was found to be 0.002 µM; in the data set on Saphenous artery, 0.082 µM. In addition, the solubility result in data set [5] is given as “Insoluble”.

With `Cc1c[nH]c2nccc(Oc3ccc(Nc4ccnc(N)n4)cc3F)c12`, the IC50 was 0.004 µM in data set [1] and 0.084 µM with Saphenous artery. For the same compound, the clearance in the data set “in vivo [3]” is 35 mL/min/kg. This compound showed a half-life in the data set “in vivo [4]” of 30 min.
